Assay results published in PubChem BioAssay (NCI).
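GI50 = concentration required for 50% inhibition of growth. TGI denotes the concentration required for complete inhibition of growth.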

Legend:
Assay in all cases: NCI-60 cell line screen, 384-well format
NCI-H23 lung = test system: NCI-H23 lung
NCI-H322M lung = test system: NCI-H322M lung
NCI-H460 NSCLC = test system: NCI-H460 NSCLC
NCI-H522 lung = test system: NCI-H522 lung
OVCAR-3 ovarian = test system: OVCAR-3 ovarian
OVCAR-4 ovarian = test system: OVCAR-4 ovarian
OVCAR-5 ovarian = test system: OVCAR-5 ovarian
OVCAR-8 ovarian = test system: OVCAR-8 ovarian
PC-3 prostate = test system: PC-3 prostate
RXF 393 renal = test system: RXF 393 renal
SF-268 CNS = test system: SF-268 CNS
SF-295 CNS = test system: SF-295 CNS
SF-539 CNS = test system: SF-539 CNS
SK-MEL-2 melanoma = test system: SK-MEL-2 melanoma
SK-MEL-28 melanoma = test system: SK-MEL-28 melanoma
SK-MEL-5 melanoma = test system: SK-MEL-5 melanoma
SK-OV-3 ovarian = test system: SK-OV-3 ovarian
SN12C renal = test system: SN12C renal
SNB-19 CNS = test system: SNB-19 CNS
SNB-75 CNS = test system: SNB-75 CNS
SR leukemia = test system: SR leukemia
SW-620 colon = test system: SW-620 colon
T-47D breast = test system: T-47D breast
TK-10 renal = test system: TK-10 renal
U251 glioblastoma = test system: U251 glioblastoma
UACC-257 melanoma = test system: UACC-257 melanoma
UACC-62 melanoma = test system: UACC-62 melanoma
UO-31 renal = test system: UO-31 renal

Compound `CC(C)[C@@H](CS(=O)(=O)C(C)C)N1C(=O)[C@@](C)(CC(=O)O)C[C@H](c2cccc(Cl)c2)[C@H]1c1ccc(Cl)cc1` has a TGI (NCI-H23 lung) of 36.9 µM, a GI50 (NCI-H322M lung) of 37.1 µM and a TGI (NCI-H322M lung) of 94.1 µM. The GI50 (NCI-H460 NSCLC) was 29.3 µM, the TGI (NCI-H460 NSCLC) was > 100 µM and the GI50 (NCI-H522 lung) was 20.1 µM. For the same compound, the TGI (NCI-H522 lung) was 49.3 µM, the GI50 (OVCAR-3 ovarian) was 14.5 µM and the TGI (OVCAR-3 ovarian) was 29.7 µM. The GI50 (OVCAR-4 ovarian) was 18.3 µM, the TGI (OVCAR-4 ovarian) was > 100 µM and the GI50 (OVCAR-5 ovarian) was 38 µM. The TGI (OVCAR-5 ovarian) was > 100 µM, the GI50 (OVCAR-8 ovarian) was 21.1 µM and the TGI (OVCAR-8 ovarian) was 92.3 µM. For the same compound, the GI50 (PC-3 prostate) was 14 µM, the TGI (PC-3 prostate) was 62.7 µM and the GI50 (RXF 393 renal) was 13.1 µM. For the same compound, the TGI (RXF 393 renal) was 36 µM, the GI50 (SF-268 CNS) was 28.9 µM and the TGI (SF-268 CNS) was > 100 µM. It also gave a GI50 (SF-295 CNS) of 14.7 µM, a TGI (SF-295 CNS) of 38.7 µM and a GI50 (SF-539 CNS) of 16.5 µM. For the same compound, the TGI (SF-539 CNS) was 35.2 µM, the GI50 (SK-MEL-2 melanoma) was 19.1 µM and the TGI (SK-MEL-2 melanoma) was 34.6 µM. For the same compound, the GI50 (SK-MEL-28 melanoma) was 42.5 µM, the TGI (SK-MEL-28 melanoma) was > 100 µM and the GI50 (SK-MEL-5 melanoma) was 994 nM. It also gave a TGI (SK-MEL-5 melanoma) of 15 µM, a GI50 (SK-OV-3 ovarian) of 24 µM and a TGI (SK-OV-3 ovarian) of 80.2 µM. For the same compound, the GI50 (SN12C renal) was 32.1 µM, the TGI (SN12C renal) was > 100 µM and the GI50 (SNB-19 CNS) was 41.7 µM. For the same compound, the TGI (SNB-19 CNS) was > 100 µM, the GI50 (SNB-75 CNS) was 26.1 µM and the TGI (SNB-75 CNS) was > 100 µM. It also gave a GI50 (SR leukemia) of 53 nM, a TGI (SR leukemia) of 187 nM and a GI50 (SW-620 colon) of 37 µM. The TGI (SW-620 colon) was > 100 µM, the GI50 (T-47D breast) was 23.3 µM and the TGI (T-47D breast) was 73.2 µM. For the same compound, the GI50 (TK-10 renal) was 35.2 µM, the TGI (TK-10 renal) was > 100 µM and the GI50 (U251 glioblastoma) was 15.5 µM. For the same compound, the TGI (U251 glioblastoma) was 37.8 µM, the GI50 (UACC-257 melanoma) was 203 nM and the TGI (UACC-257 melanoma) was 671 nM. The GI50 (UACC-62 melanoma) was 151 nM, the TGI (UACC-62 melanoma) was 12.8 µM and the GI50 (UO-31 renal) was 199 nM. It also gave a TGI (UO-31 renal) of 445 nM.
